Reference: publication PMC6272155, “Plasmin Regulation through Allosteric, Sulfated, Small Molecules” (Molecules, 2015)

Assays:
Type in all cases: biochemical
human Lys-plasmin = biological target: T1, human Lys-plasmin (Homo sapiens, UniProt P00747); assay: Direct inhibition of human Lys-plasmin, chromogenic substrate (Spectrozyme PL) hydrolysis assay
T1 construct: purchased Haematologic Technologies (Essex Junction, VT, USA)
Procedure: Important to emphasize here that the potency of NSGM-based inhibitors was evaluated by measuring their IC50's (X-axis), whereas the efficacy was assessed by measuring the overall change in residual plasmin activity (%) (ΔY = YM − Y0) (Y-axis).
Direct inhibition of human Lys-plasmin was measured using a chromogenic substrate hydrolysis assay on a microplate reader (FlexStation III, Molecular Devices, Sunnyvale, CA, USA), as reported earlier. Briefly, to each well of a 96-well microplate containing 85 µL of 50 mM Tris-HCl buffer, pH 7.4, containing 150 mM NaCl, 0.1% PEG8000, and 0.02% Tween80 at 37 °C was added 5 µL potential NSGM-based inhibitor (20–100 mM aqueous solution) (or vehicle alone) and 5 µL enzyme. The final concentration of the enzyme was 20 nM. After 5 min incubation, 5 µL of 1 mM Spectrozyme PL was rapidly added and the residual enzyme activity was measured from the initial rate of increase in A405. Relative residual enzyme activity (Y) as a function of the concentration of sulfated molecule was fitted using logistic equation 1 to obtain the potency (IC50), efficacy (ΔY) and Hill slope (HS) of inhibition. In this equation, YM and Y0 are the maximal and minimal values of Y: (1) Y = Y0+YM−Y0/1+10^(log[Inhibitor]0 − logIC50) ×HS […]
In this equation, Y is the ratio of residual plasmin activity in the presence of inhibitor to that in its absence (fractional residual activity). YM and Y0 are the maximum and minimum possible values of the fractional residual proteinase activity. The difference between these two values is used to evaluate the inhibitor’s efficacy to reduce the residual enzyme activity under the assay condition.
Direct inhibition of human plasmin by sulfated small molecules. Direct inhibition of plasmin was measured using a chromogenic substrate hydrolysis assay on a microplate reader (FlexStation III, Molecular Devices), as reported earlier. Briefly, to each well of a 96-well microplate containing […]
Tween80 at 37 °C was added 5 µL potential inhibitor (or vehicle alone) and 5 µL enzyme. The final concentration of the enzyme was 20 nM. After 5 min incubation, 5 µL of 1 mM Spectrozyme PL was rapidly added and the residual enzyme activity was measured from the initial rate of increase in A405.
Relative residual enzyme activity (Y, activity in the presence of inhibitor to that in its absence) as a function of the concentration of SPGG derivative was fitted using logistic Equation (1) to obtain the potency (IC50), efficacy (ΔY) and Hill slope (HS) of inhibition. In this equation, YM and Y0 are the maximal and minimal values of Y.

factor Xa = factor Xa (Homo sapiens, UniProt P00742); assay: Direct inhibition of factor Xa, chromogenic substrate (Spectrozyme FXa) hydrolysis assay
Procedure: (§1) The rationale behind targeting an allosteric site on plasmin was to achieve inhibition specificity over the closely related serine proteases. In contrast to active sites, allosteric sites are not as highly conserved and therefore present a powerful opportunity for discovering a selective modulator of enzyme function. […] Using appropriate small peptide-based chromogenic substrates, the fractional residual thrombin and factor Xa activities were measured under the physiological condition of pH 7.4 and 37 °C.
(§2) Briefly, to each well of a 96-well microplate containing 185 μL of 20–50 mM Tris-HCl buffer, pH 7.4, containing 100–150 mM NaCl, 0.1% PEG8000 and 0.02% Tween80 at either 25 °C (thrombin) or 37 °C (factor Xa) was added 5 μL of 10–20 mM inhibitor (or vehicle) and 5 μL of the enzyme. The final concentrations of the enzymes were 6 nM (thrombin) and 1.09 nM (factor Xa). After 10 min incubation, 5 μL 1.0 mM Spectrozyme TH or 2.5 mM Spectrozyme FXa, was rapidly added and the residual enzyme activity was measured from the initial rate of increase in A405. Relative residual enzyme activity (Y, activity in the presence of inhibitor to that in its absence) as a function of the concentration of inhibitor was measured.

thrombin = thrombin (Homo sapiens, UniProt P00734); assay: Direct inhibition of thrombin, chromogenic substrate (Spectrozyme TH) hydrolysis assay; conditions: pH 7.4, 37 °C; read-out: IC50 against thrombin
Procedure: as §1, §2

human plasmin = biological target: T2, human plasmin (Homo sapiens, UniProt P00747); assay: Michaelis-Menten kinetics of Spectrozyme PL hydrolysis by human plasmin in presence of inhibitor
T2 construct: purchased Haematologic Technologies (Essex Junction, VT, USA)
Procedure: The initial rate of Spectrozyme PL hydrolysis by human plasmin (20 nM) was monitored from the linear increase in absorbance at 405 nm corresponding to less than 10% consumption of the substrate. […] The data were fitted by Michaelis-Menten Equation (2) to determine KM,app and VMAX: (2) V= VMAX [S]/KM+ [S] […]
Michaelis-Menten kinetics of Spectrozyme PL hydrolysis by plasmin in the presence of […]
The initial rate of Spectrozyme PL hydrolysis by human plasmin (20 nM) was monitored from the linear increase in absorbance at 405 nm corresponding to less than 10% consumption of the substrate. The initial rate was measured as a function of various concentrations of the substrate (0–400 μM) […]
50 mM Tris-HCl buffer, pH 7.4, 150 mM NaCl at 37 °C. The data were fitted by Michaelis-Menten Equation (2) to determine KM,app and VMAX. […]

T1 sequence (P00747 581-810 limits assumed): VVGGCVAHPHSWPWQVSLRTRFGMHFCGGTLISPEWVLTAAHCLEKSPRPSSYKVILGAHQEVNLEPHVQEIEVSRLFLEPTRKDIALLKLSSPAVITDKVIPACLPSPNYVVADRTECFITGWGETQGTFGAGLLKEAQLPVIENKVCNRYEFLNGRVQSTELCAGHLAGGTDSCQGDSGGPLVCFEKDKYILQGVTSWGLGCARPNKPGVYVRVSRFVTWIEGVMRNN
T1 sequence (P00747 97-580 partner limits assumed): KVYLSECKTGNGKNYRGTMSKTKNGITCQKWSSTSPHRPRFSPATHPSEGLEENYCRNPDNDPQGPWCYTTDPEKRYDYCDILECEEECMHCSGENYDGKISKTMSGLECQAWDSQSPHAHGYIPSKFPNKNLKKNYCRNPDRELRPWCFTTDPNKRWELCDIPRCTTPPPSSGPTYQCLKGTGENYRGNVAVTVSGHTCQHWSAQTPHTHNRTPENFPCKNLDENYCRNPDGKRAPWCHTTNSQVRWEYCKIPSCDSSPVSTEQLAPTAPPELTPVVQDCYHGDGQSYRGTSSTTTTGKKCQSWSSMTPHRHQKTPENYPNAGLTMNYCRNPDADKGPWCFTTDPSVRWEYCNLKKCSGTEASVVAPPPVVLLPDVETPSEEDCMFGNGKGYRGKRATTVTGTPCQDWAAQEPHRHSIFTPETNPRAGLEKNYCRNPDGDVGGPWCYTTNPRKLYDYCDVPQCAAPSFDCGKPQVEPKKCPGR
T2 sequence (P00747 581-810 limits assumed): as the sequence (P00747 581-810 limits assumed) above
T2 sequence (P00747 97-580 partner limits assumed): as the sequence (P00747 97-580 partner limits assumed) above
Sequence of factor Xa (P00742 235-488 limits assumed): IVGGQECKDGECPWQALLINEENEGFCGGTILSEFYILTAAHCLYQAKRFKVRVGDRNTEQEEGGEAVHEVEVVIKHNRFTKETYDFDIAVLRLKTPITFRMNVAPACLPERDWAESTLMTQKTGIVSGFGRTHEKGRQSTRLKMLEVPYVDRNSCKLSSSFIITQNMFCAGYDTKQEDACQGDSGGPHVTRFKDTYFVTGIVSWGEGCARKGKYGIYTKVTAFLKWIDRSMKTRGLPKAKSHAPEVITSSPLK
Sequence of factor Xa (P00742 41-179 partner limits assumed): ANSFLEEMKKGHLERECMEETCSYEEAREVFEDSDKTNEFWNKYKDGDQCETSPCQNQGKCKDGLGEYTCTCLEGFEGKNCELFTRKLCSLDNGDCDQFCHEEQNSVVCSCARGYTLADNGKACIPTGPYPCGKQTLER

IC50 (human Lys-plasmin; human plasmin 20 nM, 50 mM Tris-HCl pH 7.4, 150 mM NaCl, 37 °C, Spectrozyme PL): 76 ± 12 µM
HS (Hill slope) (human Lys-plasmin; logistic fit, pH 7.4, 37 °C): 1.0 ± 0.2
Emax (human Lys-plasmin; pH 7.4, logistic fit, pH 7.4, 37 °C, read-out: ΔY% (efficacy, YM − Y0)): 72%
selectivity index for plasmin over factor Xa (factor Xa): about 5 fold
IC50 (factor Xa; pH 7.4, 37 °C, read-out: IC50 against factor Xa): > 250 µM
IC50 (thrombin): > 500 µM
mechanism of plasmin inhibition (human plasmin; Michaelis-Menten kinetics, pH 7.4, 37 °C): uncompetitive inhibition
decrease in KM relative to absence of inhibitor (human plasmin; inhibitor 0 to 150 μM): approximately 3.5 fold
VMAX of Spectrozyme PL hydrolysis (human plasmin; inhibitor 15 μM): 52.9 ± 2.9 mAU/min
VMAX of Spectrozyme PL hydrolysis (human plasmin; inhibitor 30 μM): 37.0 ± 1.5 mAU/min
VMAX of Spectrozyme PL hydrolysis (human plasmin; inhibitor 75 μM): 34.8 ± 1.5 mAU/min
VMAX of Spectrozyme PL hydrolysis (human plasmin; inhibitor 150 μM): 26.4 ± 0.8 mAU/min
Structure (SMILES): O=c1c(OS(=O)(=O)O)c(-c2ccc(OS(=O)(=O)O)c(OS(=O)(=O)O)c2)oc2cc(OS(=O)(=O)O)cc(OCCCCOc3cc(OS(=O)(=O)O)cc4oc(-c5ccc(OS(=O)(=O)O)c(OS(=O)(=O)O)c5)c(OS(=O)(=O)O)c(=O)c34)c12 [compound 52, 5,5'-(Butane-1,4-diylbis(oxy))bis(2-(3,4-O,O-disulfonato-phenyl)-3,7-O,O-disulfonato-4H-chromen-4-one)]
